Reference: US8895302B2, “Directed differentiation of primate pluripotent stem cells into functional basal forebrain cholinergic neurons (BFCNs) and medium spiny gabaergic projection neurons” (Wisconsin Alumni Research Foundation, priority 2010, dated 2014)

How the values were obtained:
[1] = system: hESC-derived primitive neural stem cells; experiment: RT-qPCR of dorsal/ventral transcription factors in patterned neural stem cells; assay type: cell-based, human; conditions: SHH 200 or 0.65 uM of purmorphamine, day 25
Experimental: (§1) The procedure for differentiating hESCs to neuroectodermal cells was the same as described (Li et al., 2005; Zhang et al., 2001). hESCs were differentiated to Pax6-expressing primitive neural stem cells for 10-12 days in a neural induction medium consisting of DMEM/F12, N2 supplement and non-essential amino acids (Pankratz et al., 2007; Zhang et al., 2001). The primitive neural stem cells were then treated with SHH (50-1000 ng/ml) or its small molecule agonist purmorphamine (0.1-1.5 uM, Calbiochem, San Diego, Calif., USA) from day 12 to day 26 to specify ventral progenitors. During this period, neural stem cells grew rapidly and formed neural tube-like rosettes, which were gently blown off at day 15-17 and grown in suspension under the same medium. For neuronal differentiation, neural progenitor clusters were dissociated with Accutase at 37° C. for 5 minutes and plated onto ornithine/laminin-coated coverslips at day 26 in Neurobasal medium.
Total RNA was extracted using Trizol reagent (Invitrogen), and cDNA was reverse-transcribed using the SuperScript III First-Strand (Invitrogen). Real-time PCR was performed using the Bio-Rad MyiQ real-time PCR detection system as described (Du et al., 2009).
Basal forebrain cholinergic neurons (BFCNs) are differentiated from progenitors in the MGE and POa/AEP domains that express Nkx2.1 (Wilson and Rubenstein, 2000; Zhao et al., 2003). […]

[2] = system: hESC-derived primitive neural stem cells; experiment: Patterning of hESC-derived primitive neural stem cells to ventral telencephalic progenitors (immunocytochemistry, FACS, Western blotting); assay type: cell-based, human
Experimental: as §1
Immunocytochemical staining on coverslip cultures and free-floating brain sections was performed as previously described (Li et al., 2005; Yang et al., 2008). The images were visualized using a Nikon TE600 fluorescence microscope (Nikon Instruments, Melville, N.Y., USA) or a Nikon C1 laser-scanning confocal microscope.
Protein samples were collected at day 25 after differentiation. Western blot analysis was performed as described (Li et al., 2009). Proteins (25 μg) were separated by 10% acrylamide gel and blotted with antibodies against Nkx2.1 (1:2,000, Mouse IgG, Chemicon & Millipore), Pax6 (1:4,000, Rabbit IgG, Covance), and β-actin (1:4,000, Mouse IgG, Sigma).
To quantify the differentiation efficiency of forebrain progenitors, neural progenitor spheres were dissociated into single cells and quantified by fluorescent activated cell sorting (FACS) (LaVaute et al., 2009). For quantifying differentiated cholinergic neurons, the neural progenitor spheres were digested with Accutase (Innovation Cell Technology) into small clusters and plated on coverslips for immunostaining as previous described (Li et al., 2005; Hu et al., 2009). Optical fields of cultures were randomly selected, and the neuronal cells and total cells (Hoechst stained) were counted using a Metamorph software. All the experiments were triplicated and the results were reproduced in two different cell lines (H1 and H9). For statistical analysis, 2-side t-test was used.
hESCs were first differentiated to Pax6-expressing pNSCs in a chemically defined medium as previously described (Johnson et al., 2007; Li et al., 2005; Zhang et al., 2001). We first determined the time course of SHH action by applying SHH for a week at day 10, 13, and 17 and by quantifying cells that express Nkx2.1, an MGE transcription factor.
Basal forebrain cholinergic neurons (BFCNs) are differentiated from progenitors in the MGE and POa/AEP domains that express Nkx2.1 (Wilson and Rubenstein, 2000; Zhao et al., 2003). […] In contrast, the expression of dorsal telencephalic transcription factors, Pax6 and Emx1, was decreased (FIG. 1B). Immunostaining and Western blotting analyses confirmed that Nkx2.1-expressing cell population increased progressively, with 97±1.3% of the cells being Nkx2.1 positive in the presence of 1000 ng/ml of SHH, whereas the population of Pax6 positive dorsal progenitors decreased, to less than 0.01% under 1000 ng/mlof SHH (FIG. 1C, D, E).

[3] = system: hESC-derived cholinergic neurons; experiment: Whole-cell patch clamp, spontaneous synaptic currents of hESC-derived BFCNs; assay type: cell-based, human; conditions: CNQX 20 μM in bath, BFCNs differentiated 8-10 weeks
Experimental: Whole-cell patch-clamp recordings were made from hESC-derived cholinergic neurons at 8-10 weeks age as previously reported (Johnson et al., 2007). Briefly, the neurons were held at −70 mV to record the spontaneous release and Na+/K+ channel activities. For action potential recording, the cells were held at 0 pA with current-clamp model and the steps of currents from +[…] were injected into cells by the holding electrode. The bath solution consisted of 127 mM NaCl, 1.2 mM KH2PO4, 1.9 mM KCl, 26 mM NaHCO3, 2.2 mM CaCl2, 1.4 mM MgSO4, 10 mM glucose, 290 mM mOsm and 95% O2/5% CO2. Recording pipettes were filled with an intracellular recording solution consisting of 20 mM KCl, 121 mM K^+-gluconate, 10 mM Na^+-HEPES, 10 mM BAPTA, 4 mM Mg2^+-ATP pH 7.2 and 290 mOm. Bicuculline (20 μM; Sigma) or 6-cyano-7-nitroquinoxiline-2,3-dione (CNQX, 20 μM; RBI) was applied to the bath solution to distinguish inhibitory (GABAergic) and excitatory (glutamatergic) response. Biocytin (1%, Sigma) was injected into cells after recording to identify the neuronal identity. An Olympus BX51WI microscope was used to visualize neurons. […] Data were analyzed with pClamp 9.0 (Axon instruments). […]
To determine the functionality of the hESC-derived BFCNs, we first measured the electrophysiological properties of the BFCNs that were differentiated for 8-10 weeks by whole cell patch clamping recording (FIG. 3). […]

striatum = experiment: Unilateral QA-induced striatal lesion; assay type: in vivo, SCID mice
Experimental: Twenty-four male SCID mice (10 weeks of age) were anesthetized with 1-2% isoflurane mixed in oxygen, and received stereotaxic injection of 2 μl 0.1M quinolinic acid (QA, P63204; Sigma, in saline with 0.2 mg/ml ascorbic acid) in the right striatum at the coordinates (anterior-posterior (AP)=−0.7 mm, lateral (L)=+1.7 mm, vertical (V)=−3.2 mm) to create the unilateral lesion (Hansson et al., 1999).
To assess the function of in vitro produced human medium spiny GABA projection neurons, we created a unilateral QA-induced striatal lesion model in immune deficient SCID mice (Sanberg et al., 1989; Reynolds et al., 2006). Four weeks post injection of QA, majority of neurons, as labeled by NeuN, including FoxP2 and DARPP32 expressing GABA projection neurons in the striatum were lost, resulting in a smaller striatum in the lesion side as compared to the non-lesion side. Accompanying the loss of neurons, there was a significant increased level of GFAP expression in astrocytes.

[4] = SHH 200 ng/ml or purmorphamine 0.65 uM, day 30

Q: Which results are given for c1ccc2c(Oc3nc(Nc4ccc(N5CCOCC5)cc4)c4ncn(C5CCCCC5)c4n3)cccc2c1 [purmorphamine]?
A: Gsh2 mRNA versus control group (RT-qPCR) [1]: upregulated expression; Pax6 mRNA versus control group (RT-qPCR) [1]: downregulation; GABA interneuron progenitor marker Nkx2.1 (immunostaining) [2, 4]: minimal expression; cortical marker Pax6 (immunostaining) [2, 4]: decreased expression; striatal GABA neuron progenitor markers Meis2, Mash1 and Otx2 (immunostaining) [2, 4]: increased expression; purmorphamine concentration equivalent to SHH at 200 ng/ml for GABAergic progenitors ([2]; pNSCs treated at day 10-12): ~0.65 µM; purmorphamine concentration equivalent to SHH at 500 ng/ml for cholinergic progenitors ([2]; pNSCs treated at day 10-12): ~1 µM

Q: N#Cc1cc2[nH]c(=O)c(=O)[nH]c2cc1[N+](=O)[O-] [CNQX, 6-cyano-7-nitroquinoxiline-2,3-dione] was tested. Which spontaneous synaptic activity [3] did it give?
A: partially blocked

Q: Which “stride length on the right limbs versus control animals that received aCSF (Treadscan)” value (striatum; lesioned mice) does the source give for O=C(O)c1cccnc1C(=O)O [QA, quinolinic acid] here?
A: longer stride length

Q: What about the “behavioural outcome of unilateral striatal lesion” value (striatum; rotarod, open field, Treadscan) of the same compound?
A: locomotion deficits typical of HD
